Data as given in US20250221966A1, “RXFP1 AGONISTS” (BRISTOL-MYERS SQUIBB COMPANY, priority 2021, published 2025).

These compounds were tested against T1, human RXFP1 (Homo sapiens, UniProt Q9HBX9) (assay: RXFP1 cAMP assay (hRXFP1 HEK293 cAMP assay, HTRF)). Conditions: HEK293 cells stably expressing human RXFP1, 30 min at room temperature, read-out: cAMP hRXFP1 HEK293 Assay EC50.
T1 construct: expressed in transfected cells
T1 sequence (Q9HBX9 1-757): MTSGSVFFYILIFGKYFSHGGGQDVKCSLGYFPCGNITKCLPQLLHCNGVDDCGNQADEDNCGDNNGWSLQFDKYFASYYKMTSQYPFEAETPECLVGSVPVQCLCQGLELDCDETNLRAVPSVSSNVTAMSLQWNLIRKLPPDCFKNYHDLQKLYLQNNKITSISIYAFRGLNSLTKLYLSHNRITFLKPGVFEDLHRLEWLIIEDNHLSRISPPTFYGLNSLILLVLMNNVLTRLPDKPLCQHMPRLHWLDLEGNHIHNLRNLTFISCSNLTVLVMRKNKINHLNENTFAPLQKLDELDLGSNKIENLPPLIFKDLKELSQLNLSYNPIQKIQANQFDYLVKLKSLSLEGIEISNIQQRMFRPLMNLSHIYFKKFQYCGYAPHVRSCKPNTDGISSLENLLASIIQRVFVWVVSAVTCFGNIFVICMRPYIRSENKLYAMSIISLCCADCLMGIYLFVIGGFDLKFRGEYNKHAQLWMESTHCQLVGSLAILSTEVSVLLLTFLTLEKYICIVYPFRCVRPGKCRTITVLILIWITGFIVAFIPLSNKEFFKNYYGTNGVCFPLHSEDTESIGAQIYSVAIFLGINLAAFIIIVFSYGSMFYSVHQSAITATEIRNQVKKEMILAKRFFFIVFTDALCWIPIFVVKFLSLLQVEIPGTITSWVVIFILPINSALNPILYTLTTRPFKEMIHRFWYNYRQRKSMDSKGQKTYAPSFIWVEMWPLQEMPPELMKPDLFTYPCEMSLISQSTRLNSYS
Format: cell-based
In short: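 Intracellular cAMP was read by HTRF, with potency fitted to a 4-parameter logistic curve. Compound exposure (0.010 nM–50 μM final, 2% DMSO) lasted 30 min at room temperature. Cells were hRXFP1-HEK293 at 1500 per well in IBMX-containing (0.5 mM) HEPES-buffered HBSS.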

Row | SMILES | EC50 [nM]
1 | COc1ccc(N2CCC(NC(=O)C3CCOCC3)C2)cc1C(=O)N[C@@H]1C2CCC(/C2=C/C(F)(F)F)[C@@H]1C(=O)Nc1ccc(F)c(C(F)(F)F)c1 (single isomer, unassigned) [compound 337] | 2080
2 | COc1ccc(-c2cc(S(C)(=O)=O)ccc2F)cc1C(=O)N[C@H]1[C@@H](C(=O)Nc2ccc(F)c(C(F)(F)F)c2)[C@H]2CC[C@@H]1/C2=C\C1CCCC1 [compound 907] | 0.1
3 | COc1ccc(-c2cc(C(OC(=O)Nc3ccccc3)C(F)F)ccc2F)cc1C(=O)N[C@H]1[C@@H](C(=O)Nc2ccc(F)c(C(F)(F)F)c2)[C@H]2CC[C@@H]1/C2=C\C1CC1 (stereo partly drawn) [Example 233, 1-(3′-(((1R,2R,3S,4R,Z)-7-(cyclopropylmethylene)-3-((4-fluoro-3-(trifluoromethyl)phenyl)carbamoyl)bicyclo[2.2.1]heptan-2-yl)carbamoyl)-6-fluoro-4′-methoxy-[1,1′-biphenyl]-3-yl)-2,2-difluoroethyl phenylcarbamate] | 2
4 | COc1c(F)cc(-c2ccc3c(c2)S(=O)(=O)N(C(C)(C)C)C3)cc1C(=O)N[C@H]1[C@@H](C(=O)N[C@H](C)C2(C)CC2)[C@H]2CC[C@@H]1/C2=C\C1CC1 [compound 916] | 3.6
5 | COc1ccc(-c2cc(C(OC(=O)NC3CCC3)C(F)F)ccc2F)cc1C(=O)N[C@@H]1C2CCC(/C2=C/C2CC2)[C@@H]1C(=O)Nc1ccc(F)c(C(F)(F)F)c1 (stereo partly drawn) [compound 231] | 1
6 | COc1ccc(C2=NO[C@H]3COC[C@@H]23)cc1C(=O)N[C@H]1[C@@H](C(=O)Nc2ccc(F)c(C(F)(F)F)c2)[C@H]2CC[C@@H]1/C2=C\C(C)C [compound 827] | 3.1
7 | COc1ccc(C2CC3COCC32)cc1C(=O)N[C@H]1[C@@H](C(=O)Nc2ccc(F)c(C(F)(F)F)c2)[C@H]2CC[C@@H]1/C2=C\C1CC1 (single isomer, unassigned) [compound 729] | 82
8 | COc1ccc(C2=NOC3COCC23)cc1C(=O)N[C@H]1[C@@H](C(=O)Nc2ccc(F)c(C(F)(F)F)c2)[C@H]2CC[C@@H]1/C2=C\c1cscn1 (stereo partly drawn) [compound 737] | 3.2
9 | COc1cc(F)c(F)cc1C(=O)N[C@@H]1C2CCC(/C2=C/c2cccc(C)c2)[C@@H]1C(=O)Nc1ccc(F)c(C(F)(F)F)c1 (stereo partly drawn) [compound 24] | 94
10 | COc1ccc(C#N)cc1C(=O)N[C@@H]1C2CCC(/C2=C/c2ccccc2)[C@@H]1C(=O)Nc1ccc(F)c(C(F)(F)F)c1 (stereo partly drawn) [compound 128] | 55
11 | CCOC(=O)Cn1cc(-c2ccc(OC)c(C(=O)N[C@@H]3C4CCC(/C4=C/c4ccccc4)[C@@H]3C(=O)Nc3ccc(F)c(C(F)(F)F)c3)c2)cn1 (stereo partly drawn) [compound 339] | 67
12 | COc1cc(F)c(F)cc1C(=O)N[C@@H]1C2CCC(/C2=C/C=C/CCCc2ccccc2)[C@@H]1C(=O)Nc1ccc(F)c(C(F)(F)F)c1 (stereo partly drawn) [compound 37] | 15
13 | COc1c(F)cc(C2=NOC3CC(CO)CC23)cc1C(=O)N[C@H]1[C@@H](C(=O)NC23CC(C#N)(C2)C3)[C@H]2CC[C@@H]1/C2=C\C1CC1 (stereo partly drawn) [compound 775] | 4.4
14 | COc1ccc(-c2ccnc(N3CCOCC3)c2F)cc1C(=O)N[C@H]1[C@@H](C(=O)Nc2ccc(F)c(C(F)(F)F)c2)[C@H]2CC[C@@H]1C2=C(C)C [compound 85] | 130
15 | COc1ccc(C2=NOC3CC(C(N)=O)CC23)cc1C(=O)N[C@H]1[C@@H](C(=O)Nc2ccc(F)c(C(F)(F)F)c2)[C@H]2CC[C@@H]1/C2=C\C(F)(F)F (single isomer, unassigned) [compound 482] | 6.8
16 | COc1cc(F)c(F)cc1C(=O)N[C@@H]1C2CCC(/C2=C/C2=CCCC2)[C@@H]1C(=O)Nc1ccc(F)c(C(F)(F)F)c1 (stereo partly drawn) [compound 38] | 360
17 | COc1ccc(C2=NO[C@H]3C[C@H](CO)CN23)cc1C(=O)N[C@H]1[C@@H](C(=O)Nc2ccc(F)c(C(F)(F)F)c2)[C@H]2CC[C@@H]1/C2=C\C1CC1 [compound 854] | 3.9
18 | COc1cc(C)c(-c2nnc(CO)s2)cc1C(=O)N[C@H]1[C@@H](C(=O)N[C@H](C)C2(C)CC2)[C@H]2CC[C@@H]1/C2=C\C1CC1 [compound 810] | 4.7
19 | COc1c(F)cc(C2=NOC3CC(CO)CC23)cc1C(=O)N[C@H]1[C@@H](C(=O)Nc2ccc(F)c(C(F)(F)F)c2)[C@H]2CC[C@@H]1/C2=C\CC(C)C (stereo partly drawn) [compound 796] | 3.7

Row | SMILES | EC50 [nM]
20 | COc1ccc(C2=NOC3(CO)CCCC23)cc1C(=O)N[C@H]1[C@@H](C(=O)Nc2ccc(F)c(C(F)(F)F)c2)[C@H]2CC[C@@H]1/C2=C\C1CC1 (single isomer, unassigned) [compound 548] | 32.6
21 | COc1ccc(C2=NOC(COCCO)C2)cc1C(=O)N[C@H]1[C@@H](C(=O)Nc2ccc(F)c(C(F)(F)F)c2)[C@H]2CC[C@@H]1/C2=C\C1CC1 (stereo partly drawn) [compound 546] | 32.1
22 | COc1cc(F)c(F)cc1C(=O)N[C@@H]1C2CCC(/C2=C/c2ccccc2Cl)[C@@H]1C(=O)Nc1ccc(F)c(C(F)(F)F)c1 (stereo partly drawn) [compound 14] | 220
23 | COc1ccc(-c2cc(C(NC(=O)C3CCOCC3)C(=O)O)ccc2F)cc1C(=O)N[C@H]1[C@@H](C(=O)Nc2ccc(F)c(C(F)(F)F)c2)[C@H]2CC[C@@H]1/C2=C\C1CC(F)(F)C1 (stereo partly drawn) [compound 943] | 1.7
24 | COc1ccc(C2=NOC(C(C)(O)C(F)(F)F)C2)cc1C(=O)N[C@H]1[C@@H](C(=O)Nc2ccc(F)c(C(F)(F)F)c2)[C@H]2CC[C@@H]1/C2=C\C1CC1 (single isomer, unassigned) [compound 682] | 612
25 | COc1ccc(-c2cc(C(=O)O)ccc2F)cc1C(=O)N[C@@H]1C2CCC(/C2=C/C2CC2)[C@@H]1C(=O)NC(C)c1nccs1 (stereo partly drawn) [compound 309] | 4380
26 | COc1ccc(C2CCOC2)cc1C(=O)N[C@H]1[C@@H](C(=O)Nc2ccc(F)c(C(F)(F)F)c2)[C@H]2CC[C@@H]1/C2=C\C(F)(F)F (stereo partly drawn) [Example 360, (1R,2S,3R,4R,Z)—N-(4-fluoro-3-(trifluoromethyl)phenyl)-3-(2-methoxy-5-(tetrahydrofuran-3-yl)benzamido)-7-(2,2,2-trifluoroethylidene)bicyclo[2.2.1]heptane-2-carboxamide] | 1940
27 | COc1ccc(C2=NOC3CC(C)(CO)CC23)cc1C(=O)N[C@H]1[C@@H](C(=O)Nc2ccc(F)c(C(F)(F)F)c2)[C@H]2CC[C@@H]1/C2=C\C1CCCC1 (stereo partly drawn) [compound 749] | 3.3
28 | COc1ccc(C2=NOC(CC(=O)O)C2)cc1C(=O)N[C@@H]1C2CCC(/C2=C/C(F)(F)F)[C@@H]1C(=O)Nc1ccc(F)c(C(F)(F)F)c1 (stereo partly drawn) [compound 396] | 320
29 | COc1ccc(-c2cc(C(=O)O)ccc2F)cc1C(=O)N[C@@H]1C2CCC(/C2=C/c2cn(Cc3ccccc3)nn2)[C@@H]1C(=O)Nc1ccc(F)c(C(F)(F)F)c1 (stereo partly drawn) [compound 326] | 2270
30 | COc1ccc(-c2cc(S(=O)(=O)NC(C)(C)C)ccc2F)cc1C(=O)N[C@H]1[C@@H](C(=O)Nc2ccc(F)c(C(F)(F)F)c2)[C@H]2CC[C@@H]1/C2=C\C1CCCC1 [compound 958] | 0.9
31 | COc1ccc(-c2cc(C(=O)O)ccc2F)cc1C(=O)N[C@@H]1C2CCC(/C2=C/C2CC2)[C@@H]1C(=O)NCc1cccc(C(F)(F)F)c1 (stereo partly drawn) [compound 264] | 3180
32 | COc1ccc(C2=NC[C@@H]3CCCN23)cc1C(=O)N[C@H]1[C@@H](C(=O)Nc2ccc(F)c(C(F)(F)F)c2)[C@H]2CC[C@@H]1/C2=C\C1CC1 [compound 708] | 1360
33 | COc1c(F)cc(C2=NOC3CC(CO)CC23)cc1C(=O)N[C@H]1[C@@H](C(=O)N[C@H](C)C2(C)CC2)[C@H]2CC[C@@H]1/C2=C\CC(O)C(F)(F)F (stereo partly drawn) [compound 832] | 3.6
34 | COc1ccc(-c2cc([C@@H](NC(=O)C3CCOCC3)C(F)(F)F)ccc2F)cc1C(=O)N[C@H]1[C@@H](C(=O)Nc2ccc(F)c(C(F)(F)F)c2)[C@H]2CC[C@@H]1/C2=C\C1CCCC1 [compound 956] | 6.1
35 | COc1ccc(-c2ccc(C(CC(=O)O)C(F)(F)F)cc2F)cc1C(=O)N[C@H]1[C@@H](C(=O)Nc2ccc(F)c(C(F)(F)F)c2)[C@H]2CC[C@@H]1/C2=C\C1CCCC1 (stereo partly drawn) [compound 892] | 9.9
36 | COc1ccc(-c2cc(C(C)CC(=O)O)ccc2F)cc1C(=O)N[C@H]1[C@@H](C(=O)Nc2ccc(F)c(C(F)(F)F)c2)[C@H]2CC[C@@H]1/C2=C\C1CC1 (stereo partly drawn) [compound 887] | 5.5
37 | COc1ccc(C2=NOC3(CCNC3)C2)cc1C(=O)N[C@H]1[C@@H](C(=O)Nc2ccc(F)c(C(F)(F)F)c2)[C@H]2CC[C@@H]1/C2=C\C1CC1 (stereo partly drawn) [compound 593] | 89.8
38 | COc1ccc(C2=NOC3C(O)CC(O)C23)cc1C(=O)N[C@H]1[C@@H](C(=O)Nc2ccc(F)c(C(F)(F)F)c2)[C@H]2CC[C@@H]1/C2=C\C1CC1 (single isomer, unassigned) [compound 674] | 481

Same assay, conditions: cAMP hRXFP1 HEK293 Assay EC50, HEK293 cells stably expressing human RXFP1, 30 min at room temperature

Row | SMILES | EC50 [nM]
39 | COc1cc(F)c(F)cc1C(=O)N[C@@H]1C2CCC(/C2=C2\C=Cc3ccccc32)[C@@H]1C(=O)Nc1ccc(F)c(C(F)(F)F)c1 (stereo partly drawn) [Example 33] | 310
